Measured values taken from patent US20260028336A1 (Arcus Biosciences, Inc., priority 2022, published 2026).

What was measured:
Cbl-b = target: T1, Cbl-b (Homo sapiens, UniProt Q13191); experiment: Cbl-b probe displacement HTRF binding assay; conditions: 0.4 nM biotinylated Cbl-b, 150 nM BODIPY probe
T1 construct: biotin (biotinylated)
How it was run: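 Biotinylated Cbl-b was preincubated with compound for 60 min at room temperature in HEPES/NaCl/Triton/TCEP/BSA buffer. BODIPY probe was added for 15 min, followed by streptavidin-terbium, and the HTRF signal was read. Displacement was normalised to DMSO and no-protein controls, and affinity was obtained from a four-parameter dose-response fit.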

Jurkat cells = experiment: IL-2 secretion assay in CD3/CD28-activated Jurkat cells (AlphaLISA); type: cell-based; conditions: Homo sapiens, CD3/CD28 T Cell Activator, 24 h, IL-2 AlphaLISA
How it was run: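 Jurkat cells (50,000/well) were preincubated 1 h at 37° C with compound in a 16-point 1:2 series spanning 10 μM to 300 pM final. Cells were then activated with CD3/CD28 T cell activator, and secreted IL-2 was read by AlphaLISA. EC50 came from 4-parameter logistic fits.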

T1 sequence (Q13191 whole entry, species assumed): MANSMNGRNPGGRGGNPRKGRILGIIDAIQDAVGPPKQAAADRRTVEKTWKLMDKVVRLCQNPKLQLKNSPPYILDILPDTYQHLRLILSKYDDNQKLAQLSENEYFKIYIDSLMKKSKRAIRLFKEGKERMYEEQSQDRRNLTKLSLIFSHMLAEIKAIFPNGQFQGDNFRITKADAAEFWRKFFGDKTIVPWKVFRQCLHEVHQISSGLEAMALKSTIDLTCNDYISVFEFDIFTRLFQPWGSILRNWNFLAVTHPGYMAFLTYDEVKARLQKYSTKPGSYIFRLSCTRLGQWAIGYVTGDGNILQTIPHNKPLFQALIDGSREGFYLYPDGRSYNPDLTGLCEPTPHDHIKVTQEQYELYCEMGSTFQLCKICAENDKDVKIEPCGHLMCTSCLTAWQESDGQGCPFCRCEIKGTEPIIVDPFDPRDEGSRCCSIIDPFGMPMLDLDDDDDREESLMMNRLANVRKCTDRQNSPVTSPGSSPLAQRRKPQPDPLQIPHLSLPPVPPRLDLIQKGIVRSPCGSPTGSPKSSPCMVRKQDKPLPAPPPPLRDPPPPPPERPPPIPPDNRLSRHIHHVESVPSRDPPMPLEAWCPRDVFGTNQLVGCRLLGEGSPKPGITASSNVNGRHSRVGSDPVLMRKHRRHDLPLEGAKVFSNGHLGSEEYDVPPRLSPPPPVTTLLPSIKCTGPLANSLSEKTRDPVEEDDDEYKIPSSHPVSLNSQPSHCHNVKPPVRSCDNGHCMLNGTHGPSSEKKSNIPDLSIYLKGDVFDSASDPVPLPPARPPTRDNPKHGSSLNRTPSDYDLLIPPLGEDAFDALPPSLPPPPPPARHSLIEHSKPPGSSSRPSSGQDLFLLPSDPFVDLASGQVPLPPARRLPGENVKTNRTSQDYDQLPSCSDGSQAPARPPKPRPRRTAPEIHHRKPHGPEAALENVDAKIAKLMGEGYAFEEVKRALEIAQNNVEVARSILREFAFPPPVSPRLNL

Structure (SMILES) | IC50 (Cbl-b) [nM] | EC50 (Jurkat cells) [nM]
C[C@H]1CCCN(Cc2cc3c(C(F)(F)F)cn(-c4cccc(C5(c6nncn6C)CC6(CC6)C5)c4)c(=O)c3[nH]2)C1 [Example 105] | < 100 | < 100
C[C@@H]1CN(Cc2cc3c(C4CC4)cn(-c4cccc(C5(c6nncn6C)CC6(CC6)C5)c4)c(=O)c3[nH]2)CCO1 [Example 71, 4-cyclopropyl-2-[[(2R)-2-methylmorpholin-4-yl]methyl]-6-[3-[5-(4-methyl-1,2,4-triazol-3-yl)spiro[2.3]hexan-5-yl]phenyl]-1H-pyrrolo[2,3-c]pyridin-7-one] | < 100 | 100 to 1000
Cn1cnnc1C1(c2cccc(-n3cc(C4CC4)c4cc(CNC5(CF)CCC5)[nH]c4c3=O)c2)CC(F)(F)C1 [Example 89, 4-cyclopropyl-6-{3-[3,3-difluoro-1-(4-methyl-4H-1,2,4-triazol-3-yl)cyclobutyl]phenyl}-2-({[1-(fluoromethyl)cyclobutyl]amino}methyl)-1H,6H,7H-pyrrolo[2,3-c]pyridin-7-one] | < 100 | 100 to 1000
CO[C@H]1C[C@@](c2cccc(-n3cc(C4CC4)c4cc(CN5CCC[C@H](C)C5)[nH]c4c3=O)c2)(c2nncn2C)C1 [Example 102, cis-4-cyclopropyl-6-[3-[3-methoxy-1-(4-methyl-1,2,4-triazol-3-yl)cyclobutyl]phenyl]-2-[[(3S)-3-methylpiperidin-1-yl]methyl]-1H-pyrrolo[2,3-c]pyridin-7-one] | < 100 | < 100
CC1CC(c2cccc(-n3cc(C4CC4)c4c(S(C)(=O)=O)c(CN5CCC[C@H](C)C5)[nH]c4c3=O)c2)(c2nncn2C)C1 (mixture of isomers) [Example 135, 4-Cyclopropyl-3-methanesulfonyl-2-{[(3S)-3-methylpiperidin-1-yl]methyl}-6-{3-[(1R,3S)-3-methyl-1-(4-methyl-4H-1,2,4-triazol-3-yl)cyclobutyl]phenyl}-1H,6H,7H-pyrrolo[2,3-c]pyridin-7-one] | < 100 | < 100
CCO[C@H]1C[C@](c2cccc(-n3cc(C4CC4)c4cc(CN5CCC[C@H](C)C5)[nH]c4c3=O)c2)(c2nncn2C)C1 [Example 98, trans-4-cyclopropyl-6-[3-[3-ethoxy-1-(4-methyl-1,2,4-triazol-3-yl)cyclobutyl]phenyl]-2-[[(3S)-3-methylpiperidin-1-yl]methyl]-1H-pyrrolo[2,3-c]pyridin-7-one] | < 100 | < 100
Cn1cnnc1C1(c2cccc(-n3cc(C4CC4)c4cc(CN5CCC6(CC6)C5)[nH]c4c3=O)c2)CC2(CC2)C1 [Example 70, 2-({5-azaspiro[2.4]heptan-5-yl}methyl)-4-cyclopropyl-6-{3-[5-(4-methyl-4H-1,2,4-triazol-3-yl)spiro[2.3]hexan-5-yl]phenyl}-1H,6H,7H-pyrrolo[2,3-c]pyridin-7-one] | < 100 | 100 to 1000
C[C@@H]1CN(Cc2cc3c(C4CC4)cn(-c4cccc(C5(c6nncn6C)CC(F)(F)C5)c4)c(=O)c3[nH]2)CCO1 [Example 94, 4-cyclopropyl-6-[3-[3,3-difluoro-1-(4-methyl-1,2,4-triazol-3-yl)cyclobutyl]phenyl]-2-[[(2R)-2-methylmorpholin-4-yl]methyl]-1H-pyrrolo[2,3-c]pyridin-7-one] | < 100 | < 100
Cn1cnnc1[C@]1(c2cccc(-n3cc(C(F)(F)F)c4cc[nH]c4c3=O)c2)C[C@H](C)C1 (single isomer, unassigned) [Example 36] | < 100 | 100 to 1000
C[C@H]1CCCN(Cc2cc3c(C4CC4)cn(-c4cccc([C@]5(c6nncn6C)C[C@@H](OC(F)F)C5)c4)c(=O)c3[nH]2)C1 [Example 96, cis-4-cyclopropyl-6-[3-[3-(difluoromethoxy)-1-(4-methyl-1,2,4-triazol-3-yl)cyclobutyl]phenyl]-2-[[(3S)-3-methylpiperidin-1-yl]methyl]-1H-pyrrolo[2,3-c]pyridin-7-one] | < 100 | < 100
C[C@H]1CCCN(Cc2cc3c(C4CC4)cn(-c4cc(C(C)(C)c5nncn5C)ccn4)c(=O)c3[nH]2)C1 [Example 160, 2—{[(S)-3-methyl-1-piperidyl]methyl}-4-cyclopropyl-6-{4-[1-methyl-1-(4-methyl-4H-1,2,4-triazol-3-yl)ethyl]-2-pyridyl}-1,6-dihydro-1,6-diaza-7-indenone] | 100 to 1000 | 100 to 1000
Cn1cnnc1C1(c2cccc(-n3cc(C4CC4)c4cc(CNCC5(O)CCC5)[nH]c4c3=O)c2)CC(F)(F)C1 [Example 83, 4-cyclopropyl-6-{3-[3,3-difluoro-1-(4-methyl-4H-1,2,4-triazol-3-yl)cyclobutyl]phenyl}-2-({[(1-hydroxycyclobutyl)methyl]amino}methyl)-1H,6H,7H-pyrrolo[2,3-c]pyridin-7-one] | < 100 | 100 to 1000
Cn1nccc1-c1c[nH]c2c(=O)n(-c3cccc([C@]4(c5nncn5C)C[C@@H](C)C4)c3)cc(C3CC3)c12 [Example 132, 4-Cyclopropyl-3-(1-methyl-1H-pyrazol-5-yl)-6-{3-[(1R,3S)-3-methyl-1-(4-methyl-4H-1,2,4-triazol-3-yl)cyclobutyl]phenyl}-1H,6H,7H-pyrrolo[2,3-c]pyridin-7-one] | < 100 | 1000 to 5000

Second part, the molecule after the results:

IC50 (Cbl-b) [nM] | EC50 (Jurkat cells) [nM] | Structure (SMILES)
100 to 1000 | > 5000 | Cn1cnnc1C1(c2cccc(-n3cc(C4CC4)c4cc(CN[C@@H]5CCOC5)[nH]c4c3=O)c2)CC(F)(F)C1 [Example 91, 4-cyclopropyl-6-{3-[3,3-difluoro-1-(4-methyl-4H-1,2,4-triazol-3-yl)cyclobutyl]phenyl}-2-{[(oxolan-3-yl)amino]methyl}-1H,6H,7H-pyrrolo[2,3-c]pyridin-7-one]
100 to 1000 | > 5000 | CC1CC(c2cccc(-n3cc(C4CC4)c4cc(CN5C[C@@H]6C[C@H]5CN6C)[nH]c4c3=O)c2)(c2nncn2C)C1 (stereo partly drawn) [Example 62]
< 100 | 100 to 1000 | COC1CC(c2cccc(-n3cc(C4CC4)c4cc(CN5CCO[C@H](C)C5)[nH]c4c3=O)c2)(c2nncn2C)C1 (stereo partly drawn) [Example 103, 4-cyclopropyl-6-[3-[3-methoxy-1-(4-methyl-1,2,4-triazol-3-yl)cyclobutyl]phenyl]-2-[[(2R)-2-methylmorpholin-4-yl]methyl]-1H-pyrrolo[2,3-c]pyridin-7-one]
< 100 | < 100 | C[C@H]1CCCN(Cc2cc3c(C4CC4)cn(-c4cccc(C5(c6nncn6C)CC6(CC6)C5)c4)c(=O)c3[nH]2)C1 [Example 74, 4-cyclopropyl-2-[[(3S)-3-methylpiperidin-1-yl]methyl]-6-[3-[5-(4-methyl-1,2,4-triazol-3-yl)spiro[2.3]hexan-5-yl]phenyl]-1H-pyrrolo[2,3-c]pyridin-7-one]
< 100 | 100 to 1000 | Cn1cnnc1C1(c2cccc(-n3cc(C4CC4)c4cc(CNCC5(CO)CC5)[nH]c4c3=O)c2)CC(F)(F)C1 [Example 85, 4-cyclopropyl-6-{3-[3,3-difluoro-1-(4-methyl-4H-1,2,4-triazol-3-yl)cyclobutyl]phenyl}-2-[({[1-(hydroxymethyl)cyclopropyl]methyl}amino)methyl]-1H,6H,7H-pyrrolo[2,3-c]pyridin-7-one]
< 100 | < 100 | C[C@H]1CCCN(Cc2nc3c(C4CC4)cn(-c4cccc(C5(c6nncn6C)CC6(CC6)C5)c4)c(=O)c3[nH]2)C1 [Example 111, 7-cyclopropyl-2-[[(3S)-3-methylpiperidin-1-yl]methyl]-5-[3-[5-(4-methyl-1,2,4-triazol-3-yl)spiro[2.3]hexan-5-yl]phenyl]-3H-imidazo[4,5-c]pyridin-4-one]
< 100 | < 100 | C[C@H]1CCCN(Cc2cc3c(C4CC4)cn(-c4cccc(C5(Cc6nncn6C)COC5)c4)c(=O)c3[nH]2)C1 [Example 75, 4-cyclopropyl-2-[[(3S)-3-methylpiperidin-1-yl]methyl]-6-[3-[3-[(4-methyl-1,2,4-triazol-3-yl)methyl]oxetan-3-yl]phenyl]-1H-pyrrolo[2,3-c]pyridin-7-one]
< 100 | 100 to 1000 | CC1CC(c2cccc(-n3cc(C4CC4)c4cc(CN5CCC[C@H](F)C5)[nH]c4c3=O)c2)(c2nncn2C)C1 (stereo partly drawn) [Example 64, 4-cyclopropyl-2-{[(3S)-3-fluoropiperidin-1-yl]methyl}-6-{3-[(1r,3s)-3-methyl-1-(4-methyl-4H-1,2,4-triazol-3-yl)cyclobutyl]phenyl}-1H,6H,7H-pyrrolo[2,3-c]pyridin-7-one]
< 100 | < 100 | CC1CC(c2cccc(-n3cc(C4CC4)c4cc(CN(C)C5CCCC5)[nH]c4c3=O)c2)(c2nncn2C)C1 (stereo not drawn) [Example 47, 2-{[cyclopentyl(methyl)amino]methyl}-4-cyclopropyl-6-{3-[3-methyl-1-(4-methyl-4H-1,2,4-triazol-3-yl)cyclobutyl]phenyl}-1H,6H,7H-pyrrolo[2,3-c]pyridin-7-one]
< 100 | < 100 | CC1CC(c2cccc(-n3cc(C4CC4)c4cc(CN5CC6CCC5C6)[nH]c4c3=O)c2)(c2nncn2C)C1 (stereo not drawn) [Example 52, 2-({2-azabicyclo[2.2.1]heptan-2-yl}methyl)-4-cyclopropyl-6-{3-[3-methyl-1-(4-methyl-4H-1,2,4-triazol-3-yl)cyclobutyl]phenyl}-1H,6H,7H-pyrrolo[2,3-c]pyridin-7-one]
100 to 1000 | 1000 to 5000 | CC(C)[C@H]1CNCCN1Cc1cc2c(C3CC3)cn(-c3cccc(C4(c5nncn5C)CC5(CC5)C4)c3)c(=O)c2[nH]1 [Example 72, 4-cyclopropyl-6-{3-[5-(4-methyl-4H-1,2,4-triazol-3-yl)spiro[2.3]hexan-5-yl]phenyl}-2-{[(2S)-2-(propan-2-yl)piperazin-1-yl]methyl}-1H,6H,7H-pyrrolo[2,3-c]pyridin-7-one]
